Reference: the supplement of paper PMC11208160

Assay: recombinant barcode read abundance after kanamycin selection (control-corrected) (log10(CPM+1)); higher = more efficient recombination; sequences stand for … in AGTGCAGAGAAAATCGGCCAGTTTTCTCTGCCTGCAGTCCGCATGCCGT…AGATTTATGCAGCGGACTGCCTTTCTCCCAAAGTGATAAACCGGACAGTATCATGGACCGGTTTTCCCGGTAATCCGTATTTGCAAGGTTGGTTTCACT; site = the 11-nt target
Method in brief: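 Recombination efficiency draws on barcodes counted at recombinant junctions in a pooled E. coli screen of targets paired with IS621 bridge RNA target-binding loops. The counts were converted to counts per million, averaged and corrected against the chloramphenicol/ampicillin LB agar control, then reported as log10(CPM+1). Selection plates held chloramphenicol/ampicillin/kanamycin with 0.1 mM IPTG, with two replicates per condition.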
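Further: IS621 recombinase and bridge RNA in Escherichia coli cells.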

With “GACTCTCCTTGGGTTCTAACCTGTTGCAT (site GACTCTCCTAG)” the “recombinant barcode read abundance (log10)” value was 0.186.
For “GACTCTCCTTGGGTTCTAACCTGTTGCAT (site GACTCTCCTAT)”, the “recombinant barcode read abundance (log10)” value was 0.387.
With “GACTCTCCTTGGGTTCTAACCTGTTGCGT (site GACTCTCCTAA)” the “recombinant barcode read abundance (log10)” value was 0.103.
For “GACTCTCCTTGGGTTCTAACCTGTTGCGT (site GACTCTCCTAC)”, the “recombinant barcode read abundance (log10)” value was 1.75.
With “GACTCTCCTTGGGTTCTAACCTGTTGCGT (site GACTCTCCTAG)” the “recombinant barcode read abundance (log10)” value was 0.
For “GACTCTCCTTGGGTTCTAACCTGTTGCGT (site GACTCTCCTAT)”, the “recombinant barcode read abundance (log10)” value was 0.321.
In the case of “GACTGCCCTTGGGTTCTAACCTGTTGCCT (site GACTGCCCTAG)”, the “recombinant barcode read abundance (log10)” value is reported as 0.166.
In the case of “GACTGCCCTTGGGTTCTAACCTGTTGCCT (site GCCTGCCCTAG)”, the “recombinant barcode read abundance (log10)” value is reported as 0.164.
For “GACTGCCCTTGGGTTCTAACCTGTTGCCT (site GGCTGCCCTAG)”, the “recombinant barcode read abundance (log10)” value was 0.0269.
For “GACTGCCCTTGGGTTCTAACCTGTTGCCT (site GTCTGCCCTAG)”, the “recombinant barcode read abundance (log10)” value was 0.129.
With “GACTGGCCTTGGGTTCTAACCTGTTGCTT (site GACTGGCCTAA)” the “recombinant barcode read abundance (log10)” value was 0.389.
In the case of “GACTGGCCTTGGGTTCTAACCTGTTGCTT (site GACTGGGCTCA)”, the “recombinant barcode read abundance (log10)” value is reported as 0.154.
With “GACTTGACTTGGGTTCTAACCTGTTGCCT (site GACTTGACTAG)” the “recombinant barcode read abundance (log10)” value was 1.13.
With “GACTTGACTTGGGTTCTAACCTGTTGCCT (site GACTTGCCTAG)” the “recombinant barcode read abundance (log10)” value was 0.0736.
For “GACTTGACTTGGGTTCTAACCTGTTGCCT (site GACTTGGCTAG)”, the “recombinant barcode read abundance (log10)” value was 0.171.
For “GACTTGACTTGGGTTCTAACCTGTTGCCT (site GACTTGTCTAG)”, the “recombinant barcode read abundance (log10)” value was 0.0657.
In the case of “GACTTGTCTTGGGTTCTAACCTGTTGCCT (site GACTTGACTAG)”, the “recombinant barcode read abundance (log10)” value is reported as 0.0686.
With “GACTTGTCTTGGGTTCTAACCTGTTGCCT (site GACTTGCCTAG)” the “recombinant barcode read abundance (log10)” value was 0.0458.
With “GACTTGTCTTGGGTTCTAACCTGTTGCCT (site GACTTGGCTAG)” the “recombinant barcode read abundance (log10)” value was 0.0443.
In the case of “GACTTGTCTTGGGTTCTAACCTGTTGCCT (site GACTTGTCTAG)”, the “recombinant barcode read abundance (log10)” value is reported as 1.41.
For “GACTTTCCTTGGGTTCTAACCTGTTGCAT (site GACTTACCTAT)”, the “recombinant barcode read abundance (log10)” value was 0.01.
For “GACTTTCCTTGGGTTCTAACCTGTTGCAT (site GACTTCCCTAT)”, the “recombinant barcode read abundance (log10)” value was 0.272.
For “GACTTTCCTTGGGTTCTAACCTGTTGCAT (site GACTTGCCTAT)”, the “recombinant barcode read abundance (log10)” value was 0.0607.
With “GACTTTCCTTGGGTTCTAACCTGTTGCAT (site GACTTTCCTAT)” the “recombinant barcode read abundance (log10)” value was 0.101.
With “GAGAACACTTGGGTTCTAACCTGTTGCCT (site AAGAACACTAG)” the “recombinant barcode read abundance (log10)” value was 1.09.
In the case of “GAGAACACTTGGGTTCTAACCTGTTGCCT (site CAGAACACTAG)”, the “recombinant barcode read abundance (log10)” value is reported as 0.439.
With “GAGAACACTTGGGTTCTAACCTGTTGCCT (site GAGAACACTAG)” the “recombinant barcode read abundance (log10)” value was 2.01.
For “GAGAACACTTGGGTTCTAACCTGTTGCCT (site TAGAACACTAG)”, the “recombinant barcode read abundance (log10)” value was 0.852.
In the case of “GAGAAGCCTTGGGTTCTAACCTGTTGCCT (site AAGAAGCCTAG)”, the “recombinant barcode read abundance (log10)” value is reported as 1.17.
In the case of “GAGAAGCCTTGGGTTCTAACCTGTTGCCT (site CAGAAGCCTAG)”, the “recombinant barcode read abundance (log10)” value is reported as 0.409.
With “GAGAAGCCTTGGGTTCTAACCTGTTGCCT (site GAGAAGCCTAG)” the “recombinant barcode read abundance (log10)” value was 2.12.
In the case of “GAGAAGCCTTGGGTTCTAACCTGTTGCCT (site TAGAAGCCTAG)”, the “recombinant barcode read abundance (log10)” value is reported as 0.639.
In the case of “GAGAGAGCTTGGGTTCTAACCTGTTGCAT (site GAGAGAGCTAT)”, the “recombinant barcode read abundance (log10)” value is reported as 1.41.
In the case of “GAGAGAGCTTGGGTTCTAACCTGTTGCAT (site GAGCGAGCTAT)”, the “recombinant barcode read abundance (log10)” value is reported as 0.193.
For “GAGAGAGCTTGGGTTCTAACCTGTTGCAT (site GAGGGAGCTAT)”, the “recombinant barcode read abundance (log10)” value was 0.0621.
In the case of “GAGAGAGCTTGGGTTCTAACCTGTTGCAT (site GAGTGAGCTAT)”, the “recombinant barcode read abundance (log10)” value is reported as 0.14.
For “GAGAGGTCTTGGGTTCTAACCTGTTGCCT (site GAGAGGTCTAA)”, the “recombinant barcode read abundance (log10)” value was 0.298.
With “GAGAGGTCTTGGGTTCTAACCTGTTGCCT (site GAGAGGTCTAC)” the “recombinant barcode read abundance (log10)” value was 0.0681.
For “GAGAGGTCTTGGGTTCTAACCTGTTGCCT (site GAGAGGTCTAG)”, the “recombinant barcode read abundance (log10)” value was 1.56.
In the case of “GAGAGGTCTTGGGTTCTAACCTGTTGCCT (site GAGAGGTCTAT)”, the “recombinant barcode read abundance (log10)” value is reported as 0.203.
For “GAGATGTCTTGGGTTCTAACCTGTTGCCT (site GAGATGTCTAG)”, the “recombinant barcode read abundance (log10)” value was 2.43.
In the case of “GAGATGTCTTGGGTTCTAACCTGTTGCCT (site GCGATGTCTAG)”, the “recombinant barcode read abundance (log10)” value is reported as 0.147.
With “GAGATGTCTTGGGTTCTAACCTGTTGCCT (site GGGATGTCTAG)” the “recombinant barcode read abundance (log10)” value was 0.266.
With “GAGATGTCTTGGGTTCTAACCTGTTGCCT (site GTGATGTCTAG)” the “recombinant barcode read abundance (log10)” value was 0.577.
In the case of “GAGCACCCTTGGGTTCTAACCTGTTGCCA (site GAGCACCCTTG)”, the “recombinant barcode read abundance (log10)” value is reported as 1.77.
For “GAGCACCCTTGGGTTCTAACCTGTTGCCA (site GAGCTCACTTG)”, the “recombinant barcode read abundance (log10)” value was 0.0464.
In the case of “GAGCAGTCTTGGGTTCTAACCTGTTGCCT (site GAGAAGTCTAG)”, the “recombinant barcode read abundance (log10)” value is reported as 0.
In the case of “GAGCAGTCTTGGGTTCTAACCTGTTGCCT (site GAGCAGTCTAG)”, the “recombinant barcode read abundance (log10)” value is reported as 2.4.
With “GAGCAGTCTTGGGTTCTAACCTGTTGCCT (site GAGGAGTCTAG)” the “recombinant barcode read abundance (log10)” value was 0.117.
In the case of “GAGCAGTCTTGGGTTCTAACCTGTTGCCT (site GAGTAGTCTAG)”, the “recombinant barcode read abundance (log10)” value is reported as 0.214.
For “GAGCCACCTTGGGTTCTAACCTGTTGCTG (site GAGCCACCTCA)”, the “recombinant barcode read abundance (log10)” value was 1.58.
For “GAGCCACCTTGGGTTCTAACCTGTTGCTG (site GAGCCGCCTCG)”, the “recombinant barcode read abundance (log10)” value was 0.104.
For “GAGCCGACTTGGGTTCTAACCTGTTGCAG (site GAGCCGACTCT)”, the “recombinant barcode read abundance (log10)” value was 2.25.
With “GAGCCGACTTGGGTTCTAACCTGTTGCAG (site TAGCCGGCTCT)” the “recombinant barcode read abundance (log10)” value was 0.0779.
With “GAGCCGACTTGGGTTCTAACCTGTTGCCT (site GAGCAGACTAG)” the “recombinant barcode read abundance (log10)” value was 0.288.
In the case of “GAGCCGACTTGGGTTCTAACCTGTTGCCT (site GAGCCGACTAG)”, the “recombinant barcode read abundance (log10)” value is reported as 1.56.
In the case of “GAGCCGACTTGGGTTCTAACCTGTTGCCT (site GAGCGGACTAG)”, the “recombinant barcode read abundance (log10)” value is reported as 0.274.
With “GAGCCGACTTGGGTTCTAACCTGTTGCCT (site GAGCTGACTAG)” the “recombinant barcode read abundance (log10)” value was 0.0365.
With “GAGCCGCCTTGGGTTCTAACCTGTTGCAT (site GAGCCGCCTAT)” the “recombinant barcode read abundance (log10)” value was 1.48.
For “GAGCCGCCTTGGGTTCTAACCTGTTGCAT (site GGGACGCCTAT)”, the “recombinant barcode read abundance (log10)” value was 0.0756.
In the case of “GAGCCGCCTTGGGTTCTAACCTGTTGCCG (site GAGCCACCTCA)”, the “recombinant barcode read abundance (log10)” value is reported as 0.118.
With “GAGCCGCCTTGGGTTCTAACCTGTTGCCG (site GAGCCGCCTCG)” the “recombinant barcode read abundance (log10)” value was 1.04.
With “GAGCCTACTTGGGTTCTAACCTGTTGCCT (site GAACCTACTCG)” the “recombinant barcode read abundance (log10)” value was 0.0224.
With “GAGCCTACTTGGGTTCTAACCTGTTGCCT (site GAGCCTACTAG)” the “recombinant barcode read abundance (log10)” value was 1.29.
In the case of “GAGCCTACTTGGGTTCTAACCTGTTGCTA (site AAGCCTACTTA)”, the “recombinant barcode read abundance (log10)” value is reported as 0.25.
With “GAGCCTACTTGGGTTCTAACCTGTTGCTA (site GAGCCTACTTA)” the “recombinant barcode read abundance (log10)” value was 1.02.
For “GAGCGAGCTTGGGTTCTAACCTGTTGCTA (site GAGCGAGCTTA)”, the “recombinant barcode read abundance (log10)” value was 1.31.
In the case of “GAGCGAGCTTGGGTTCTAACCTGTTGCTA (site GAGCGGACTTA)”, the “recombinant barcode read abundance (log10)” value is reported as 0.267.
For “GAGCGCACTTGGGTTCTAACCTGTTGCGG (site GAGCGCACTCC)”, the “recombinant barcode read abundance (log10)” value was 2.13.
For “GAGCGCACTTGGGTTCTAACCTGTTGCGG (site GAGCGCACTCT)”, the “recombinant barcode read abundance (log10)” value was 1.51.
For “GAGCGCTCTTGGGTTCTAACCTGTTGCTA (site GAGCGCTCTAA)”, the “recombinant barcode read abundance (log10)” value was 0.167.
For “GAGCGCTCTTGGGTTCTAACCTGTTGCTA (site GAGCGCTCTCA)”, the “recombinant barcode read abundance (log10)” value was 0.223.
With “GAGCGCTCTTGGGTTCTAACCTGTTGCTA (site GAGCGCTCTGA)” the “recombinant barcode read abundance (log10)” value was 0.12.
With “GAGCGCTCTTGGGTTCTAACCTGTTGCTA (site GAGCGCTCTTA)” the “recombinant barcode read abundance (log10)” value was 0.636.
In the case of “GAGCGCTCTTGGGTTCTAACCTGTTGCTC (site GAGCGCTCTAA)”, the “recombinant barcode read abundance (log10)” value is reported as 0.525.
For “GAGCGCTCTTGGGTTCTAACCTGTTGCTC (site GAGCGCTCTCA)”, the “recombinant barcode read abundance (log10)” value was 0.0599.
For “GAGCGCTCTTGGGTTCTAACCTGTTGCTC (site GAGCGCTCTGA)”, the “recombinant barcode read abundance (log10)” value was 1.18.
In the case of “GAGCGCTCTTGGGTTCTAACCTGTTGCTC (site GAGCGCTCTTA)”, the “recombinant barcode read abundance (log10)” value is reported as 0.381.
For “GAGCGTACTTGGGTTCTAACCTGTTGCAT (site GAGAGTACTAT)”, the “recombinant barcode read abundance (log10)” value was 0.257.
In the case of “GAGCGTACTTGGGTTCTAACCTGTTGCAT (site GAGCGTACTAT)”, the “recombinant barcode read abundance (log10)” value is reported as 1.09.
For “GAGCGTACTTGGGTTCTAACCTGTTGCAT (site GAGGGTACTAT)”, the “recombinant barcode read abundance (log10)” value was 0.0723.
For “GAGCGTACTTGGGTTCTAACCTGTTGCAT (site GAGTGTACTAT)”, the “recombinant barcode read abundance (log10)” value was 0.0144.
In the case of “GAGCGTCCTTGGGTTCTAACCTGTTGCTA (site AGCGAATCTCG)”, the “recombinant barcode read abundance (log10)” value is reported as 0.0924.
With “GAGCGTCCTTGGGTTCTAACCTGTTGCTA (site GAGCGTCCTTA)” the “recombinant barcode read abundance (log10)” value was 0.94.
With “GAGCTACCTTGGGTTCTAACCTGTTGCCT (site GAGCTACCTAG)” the “recombinant barcode read abundance (log10)” value was 1.46.
With “GAGCTACCTTGGGTTCTAACCTGTTGCCT (site GAGCTACCTCG)” the “recombinant barcode read abundance (log10)” value was 0.549.
